Results as given in patent EP2156835A1, “New therapeutic use of drotaverine” (Sanofi-Aventis, priority 2008, dated 2010).

Tested on: human isolated detrusor muscle
Assay: Relaxation of U46619-induced plateau of contraction in human isolated detrusor muscle strips (organ bath)
Details: for Emax at 100 µM / EC50: Homo sapiens; for Emax at 100 µM: at the concentration of 100 µM, percent relaxation of 1 µM U46619 plateau, 10 µM forskolin taken as 100% relaxation, read-out: maximal relaxant effect (Emax); for EC50: mean, relaxation of plateau of contraction induced by 1 µM U46619 after priming with 0.1 µM forskolin, CRC 0.03 - 100 µM, non linear regression fit, read-out: pEC50 (-log EC50) (converted)
Experimental: The detrusor muscle was separated from mucosa and adventitia and cut into small strips which were mounted, under 1 g initial tension, in 5 mL glass organ baths containing oxygenated Krebs-Henseleit solution (composition in mM: NaCl 114, KCl 4.7, CaCl2 2.5, MgS04 1.2, KH2PO4 1.2, NaHCO3 25, glucose 11.7) kept at 37°C. Tissues were allowed to equilibrate for at least 60 minutes during which time the Krebs solution was replaced every 15 min. After the stabilization period, a reference contraction to 80 mM KCl was performed on each strip. Tissues having a contraction less than 1 g were discarded. After wash-outs and a further 45 min of re-equilibration, during which the resting tension was adjusted periodically, each strip was primed with 0.1 µM forskolin, an adenylyl cyclise activator, for 10 min then recontracted with 1 µM U46619 for at least 20 min, until a stable plateau of contraction was obtained. Strips having a plateau of contraction less than 0.2 g were discarded. After obtaining a stable plateau of contraction, concentration-responses curves (CRC) to drotaverine and rolipram (0.03 - 100 µM) or the common vehicle (DMSO from 0.003 to 1 % in the organ bath) were performed. At the end of the CRC, the maximal relaxant effect for each strip was determined following application of 10 µM forskolin into the organ baths. Only one CRC to each substance or solvent was tested in a single strip. CRCs were constructed using 8 bladder strips from 4 different patients. Results were expressed as percent relaxation of the plateau of contraction induced by 1 µM U46619, with respect to the maximal effect obtained with 10 µM forskolin taken as 100% relaxation.
All CRCs were fitted by non linear regressions using the software GraphPad Prism® version 4.0 to obtain the following parameters: Emax: Maximal relaxation induced by the tested substance; EC50: the concentration which induces 50% of the maximum effect, expressed as pEC50 (-log EC50). Comparisons of the CRCs were performed with two-way analysis of variance (ANOVA) statistical analysis test and Bonferroni post-test. All differences will be considered statistically significant when the null hypothesis can be rejected at a risk α of less than 0.05.

EC50 | Structure (SMILES) | Emax at 100 µM | relaxation of U46619-induced human detrusor contraction (from 0.03 to 100 µM) | relaxation of U46619-contracted detrusor strips (from 0.03 to 10 µM) | relaxation of U46619-induced detrusor muscle contraction (from 30 to 100 µM)
0.151 µM | COc1ccc(C2CNC(=O)C2)cc1OC1CCCC1 (stereo not shown) [rolipram] | 89.5 ± 2.68% | significant concentration-dependent relaxation | – | –
32.4 µM | CCOc1ccc(C=C2NCCc3cc(OCC)c(OCC)cc32)cc1OCC [drotaverine, 1-[(3,4-diethoxyphenyl)methylene]-6,7-diethoxy-1,2,3,4-tetrahydro-isoquinoline] | 80.8 ± 3.07% | – | slight relaxation | significant concentration-dependent relaxation
